Data as given in patent publication US11660303B2, “2-phenylimidazo[4,5-b]pyridin-7-amine derivates useful as inhibitors of mammalian tyrosine kinase ROR1 activity” (KANCERA AB, priority 2016, dated 2023).

Columns and labels:
Format in all cases: cell-based
[1] = system: RC-KB; test: MTT cytotoxicity assay, RC-KB; conditions: Diffuse large B-cell lymphoma (DLBCL), incubation 48 h
Experimental: (§1) The MTT assay (Sigma-Aldrich) was used to measure cytotoxic capability of the ROR1 tyrosine kinase inhibitors (ROR1-TKI). Briefly, 2×10^4 cancer cells were incubated in triplicates in 200 μL of RPMI-1640 containing 10% FCS in 96 well plates. ROR1-TKI (dissolved in DMSO), were added to the cells. Cells treated with DMSO were used as negative control. Cells were incubated for 48, 72 or 96 h. An amount of 20 μL MTT solution was added and the cell suspension was incubated for 4 h at 37 degrees C. The reaction was stopped by adding 100 μL MTT solvent (10% SDS in 0.01 M HCl) and was incubated for further 2-4 h. The plate was then read by a microplate reader at 570 nm.
(§2) Results, in terms of IC50 (μM), are shown in Table 4 for a representative compound of the invention, viz. Example 172.

[2] = system: SUDHL4; test: MTT cytotoxicity assay, SUDHL4; conditions: Homo sapiens, SU-DHL-4, SUDHL4, Diffuse large B-cell lymphoma (DLBCL), incubation 48 h
Experimental: as §1, §2

[3] = system: OCI-LY3; test: MTT cytotoxicity assay, OCI-LY3; conditions: Homo sapiens, OCI-LY3, Diffuse large B-cell lymphoma (DLBCL), incubation 48 h
Experimental: as §1, §2

[4] = system: HDLM2; test: MTT cytotoxicity assay, HDLM2; conditions: Homo sapiens, HDLM-2, HDLM2, Hodgkin’s Lymphoma (HL), incubation 48 h
Experimental: as §1, §2

[5] = system: MDA-V; test: MTT cytotoxicity assay, MDA-V; conditions: Hodgkin’s Lymphoma (HL), incubation 48 h
Experimental: as §1, §2

[6] = system: MDA-V; test: Flow cytometry Annexin V/PI apoptosis assay, MDA-V; conditions: Hodgkin’s Lymphoma (HL), incubation 48 h
Experimental: (§3) Flow Cytometry Annexin V/PI Apoptosis Assay
(§4) An amount of 1 ml (10^5 cells/mL) of cells were seeded in each well of 6-well plates with and without compounds for 48 h. Cells were collected, washed with PBS, suspended in 100 μL of Annexin-V binding buffer (BD Biosciences) containing FITC-conjugated Annexin-V and PI (BD Biosciences) and incubated at room temperature in the dark for 20 min. After 20 min of incubation, 150 μL Annexin-V binding buffer was added. Viable cells were identified as the double negative Annexin-V and PI population. Samples were analyzed by a FACS Canto II Flow-cytometer (BD Biosciences).
as §2

[7] = system: H146; test: Alamar Blue cell viability assay, H146; conditions: Homo sapiens, NCI-H146; H146, Small cell lung cancer, alamarBlue, incubation 72 h
Experimental: Alamar Blue Cell Viability Assay
Cells were plated 12 hours prior to start of drug treatment, which lasted for 72 hours for all cytotoxicity experiments. Cell viability was estimated by alamarBlue™ Cell Viability Reagent (ThermoFisher, Waltham, Mass.) per manufacturer's instructions.
as §2

[8] = system: H1975; test: MTT cytotoxicity assay, H1975; conditions: Homo sapiens, NCI-H1975, H1975, Non-small cell lung cancer, incubation 72 h
Experimental: as §1, §2

[9] = system: H23; test: MTT cytotoxicity assay, H23; conditions: Homo sapiens, NCI-H23, H23, Non-small cell lung cancer, incubation 72 h
Experimental: as §1, §2

[10] = system: SEM cells; test: MTT cytotoxicity assay, SEM; conditions: B-cell acute lymphoblastic leukemia (B-ALL), incubation 48 h
Experimental: as §1, §2

[11] = system: HPB; test: MTT cytotoxicity assay, HPB; conditions: T-cell acute lymphoblastic leukemia (T-ALL), incubation 48 h
Experimental: as §1, §2

[12] = system: Caov3; test: MTT cytotoxicity assay, Caov3; conditions: Homo sapiens, Caov-3, Caov3, Ovarian cancer (OC), incubation 48 h
Experimental: as §1, §2

[13] = system: A2780; test: MTT cytotoxicity assay, A2780; conditions: Homo sapiens, A2780, Ovarian cancer (OC), incubation 48 h
Experimental: as §1, §2

[14] = system: A2780; test: Flow cytometry Annexin V/PI apoptosis assay, A2780; conditions: Homo sapiens, A2780, Ovarian cancer (OC), incubation 48 h
Experimental: as §3, §4, §2

[15] = system: Granta-519; test: MTT cytotoxicity assay, Granta-519; conditions: Homo sapiens, Granta-519, Mantle Cell Lymphoma (MCL), incubation 96 h
Experimental: as §1, §2

[16] = system: JVM2; test: MTT cytotoxicity assay, JVM2; conditions: Homo sapiens, JVM-2, JVM2, Mantle Cell Lymphoma (MCL), incubation 96 h
Experimental: as §1, §2

[17] = system: AMO-1; test: MTT cytotoxicity assay, AMO-1; conditions: Homo sapiens, AMO1, AMO-1, Multiple Myeloma (MM), incubation 96 h
Experimental: as §1, §2

[18] = system: 232-B4; test: MTT cytotoxicity assay, 232-B4; conditions: 232-B4, CLL cell line, ExPASy Accession No: CVCL_Y436, MTT, incubation 48 h
Experimental: as §1, §2

[19] = system: EHEB; test: MTT cytotoxicity assay, EHEB; conditions: CLL cell line, DSMZ bank, (ACC 67), incubation 48 h
Experimental: as §1, §2

[20] = system: MEC-2; test: MTT cytotoxicity assay, MEC-2; conditions: MEC2, MEC-2, CLL cell line, DSMZ bank, (ACC 500), incubation 48 h
Experimental: as §1, §2

IC50 [6]: 100 nM | IC50 [7]: 230 nM | IC50 [14]: 270 nM
SMILES: CCOCCN1CCN(c2ccc(-c3nc4c(NC5CCN(CC)CC5)c(Br)cnc4[nH]3)cc2)CC1 [Example 172, 6-Bromo-2-{4-[4-(2-ethoxyethyl)piperazin-1-yl]phenyl}-N-(1-ethylpiperidin-4-yl)-3H-imidazo[4,5-b]pyridin-7-amine]
IC50 [1]: 100 nM | IC50 [2]: 50 nM | IC50 [3]: 50 nM | IC50 [4]: 50 nM | IC50 [5]: 50 nM | IC50 [8]: 250 nM | IC50 [9]: 150 nM | IC50 [10]: 25 nM | IC50 [11]: 100 nM | IC50 [12]: 250 nM | IC50 [13]: 100 nM | IC50 [15]: 250 nM | IC50 [16]: 200 nM | IC50 [17]: 50 nM | IC50 [18]: 200 nM | IC50 [19]: 200 nM | IC50 [20]: 110 nM
